Assay results as given in patent US12023315B2, “Pharmaceutical compositions and methods utilizing neostigmine and an NK-1 antagonist for treating myasthenia gravis” (priority 2017, dated 2024).

Tested on: gastro-intestinal side effects of neostigmine in human subjects
Test: Phase I single-blind, placebo-controlled study: single oral neostigmine bromide with or without single oral aprepitant
Format: in vivo
Details: human volunteers; single oral aprepitant (up to 125 mg) co-administered with first intolerable oral dose (FID) of neostigmine bromide; follow-up up to 8 hours
Experimental: The ability of the NK1-antagonists for preventing the adverse effects of orally administered neostigmine bromide in humans is tested.
A Phase I study is conducted in human subjects receiving a single oral dose of neostigmine bromide with or without a single oral dose of aprepitant hydrochloride dihydrate, as a representative NK1-antagonist. The study is a single center, single-blind, placebo-controlled study.
To be enrolled in the study, participants are to meet the following inclusion/exclusion criteria:
Key Inclusion Criteria • 1. Male or female volunteers between the ages of 18 and 60 years inclusive are required to be in good health, to refrain from consuming xanthine, quinine and caffeine containing beverages, and to refrain from prolonged intensive physical exercise during the study conduct. • 2. […] Subjects had to be in good health according to their medical history including personal and family psychiatric history, physical examination, ECG, vital signs, and laboratory tests. […] Subjects had to be able to swallow multiple pills simultaneously.
Key Exclusion Criteria • 1. Any clinically relevant acute or chronic disease which could interfere with the subjects' safety during the trial, expose them to undue risk, or interfere with the study objectives. • 2. […]

**Q.** Which “occurrence of gastro-intestinal AEs with neostigmine” value does the source give for `C[C@@H](O[C@H]1OCCN(Cc2nc(=O)[nH][nH]2)[C@H]1c1ccc(F)cc1)c1cc(C(F)(F)F)cc(C(F)(F)F)c1` [aprepitant, 5-[[(2R,3S)-2-[(1R)-1-[3,5-bis(trifluoromethyl)phenyl]ethoxy]-3-(4-fluorophenyl)-4-morpholinyl]methyl]-1,2-dihydro-3H-1,2,4-triazol-3-one] here?
**A.** prevents or attenuates the occurrence of gastro-intestinal AEs
